32 molecules from patent US12139499B2, “Heteroaryl compounds for treating Huntington's disease” (PTC THERAPEUTICS, INC., priority 2018, dated 2024) can be followed below.

pIC50: −log10 of the molar value.

The subject of the experiment is Endogenous Huntingtin Protein. In words: Endogenous Huntingtin Protein Assay (ELISA-based MSD electrochemiluminescence). The conditions noted are these: Table 1. The format is cell-based. In outline: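 Huntingtin was captured overnight at 4 °C on plates coated with 1 μg/mL MW1 (polyQ-expanded) or MAB2166 antibody and BSA-blocked. Detection used a rabbit monoclonal and then a SULFO-TAG goat anti-rabbit antibody (0.25 μg/mL, 1 h each, room temperature). Signal was read by electrochemiluminescence.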
`Cc1cn2cc(-c3ccc4nc(N(C)C5CC6CCCC(C5)N6)sc4n3)cc(C#N)c2n1` (stereo not drawn) [Compound 279, 6-{2-[(3-exo)-9-azabicyclo[3.3.1]non-3-yl(methyl)amino][1,3]thiazolo[5,4-b]pyridin-5-yl}-2-methylimidazo[1,2-a]pyridine-8-carbonitrile] showed a pIC50 of no less than 7.00.

`CN1CC[C@@H]2[C@@H](CCN2c2nc3nnc(-c4ccc(-c5cn[nH]c5)cc4O)cc3s2)C1` [Compound 347, 2-{6-[(3aS,7aR)-5-methyloctahydro-1H-pyrrolo[3,2-c]pyridin-1-yl][1,3]thiazolo[4,5-c]pyridazin-3-yl}-5-(1H-pyrazol-4-yl)phenol] showed a pIC50 of 5.52 to 6.00. As to `Cc1cn2cc(-c3cc(F)c4nc(C5=CCNCC5)sc4c3)nc(C)c2n1` [Compound 53, 6-[4-fluoro-2-(1,2,3,6-tetrahydropyridin-4-yl)-1,3-benzothiazol-6-yl]-2,8-dimethylimidazo[1,2-a]pyrazine], the pIC50 is 6.30 to 7.00. In turn, `Cc1cn2nc(-c3cc(F)c4nc(N5CCNC6(CC6)C5)sc4c3)cc(C)c2n1` [Compound 125, 6-[2-(4,7-diazaspiro[2.5]oct-7-yl)-4-fluoro-1,3-benzothiazol-6-yl]-2,8-dimethylimidazo[1,2-b]pyridazine] had a pIC50 of 6.30 to 7.00. Turning to `Cc1nc2ccc(-c3ccc4nc(N(C)C5CC(C)(C)NC(C)(C)C5)sc4c3)nn2n1` [Compound 48, N-methyl-6-(2-methyl[1,2,4]triazolo[1,5-b]pyridazin-6-yl)-N-(2,2,6,6-tetramethylpiperidin-4-yl)-1,3-benzothiazol-2-amine], the pIC50 is 6.30 to 7.00.

The molecule `Cc1cc(-c2cc3sc(N(C)C4CC(C)(C)NC(C)(C)C4)nc3nn2)cc2cn(C)nc12` [Compound 118, 3-(2,7-dimethyl-2H-indazol-5-yl)-N-methyl-N-(2,2,6,6-tetramethylpiperidin-4-yl)[1,3]thiazolo[4,5-c]pyridazin-6-amine] gave a pIC50 of 6.30 to 7.00. Turning to `Cc1cc(-c2cc(F)c3nc(N(C)C4CC(C)(C)NC(C)(C)C4)sc3c2)cc2cn(C)nc12` [Compound 24, 6-(2,7-dimethyl-2H-indazol-5-yl)-4-fluoro-N-methyl-N-(2,2,6,6-tetramethylpiperidin-4-yl)-1,3-benzothiazol-2-amine], the pIC50 was no less than 7.00. Turning to `Cc1cn2cc(-c3cc4sc(OC5CC6CCC(C5)N6)nc4cn3)cc(C#N)c2n1` (stereo not drawn) [Compound 223, 6-{2-[(3-exo)-8-azabicyclo[3.2.1]oct-3-yloxy][1,3]thiazolo[4,5-c]pyridin-6-yl}-2-methylimidazo[1,2-a]pyridine-8-carbonitrile], the pIC50 is 6.30 to 7.00. In the case of `Cc1cn2nc(-c3cnc4nc(N5CCNCC5)sc4n3)ccc2n1` [Compound 182, 6-(2-methylimidazo[1,2-b]pyridazin-6-yl)-2-(piperazin-1-yl)[1,3]thiazolo[4,5-b]pyrazine] it was 6.00 to 6.30; in that of `Cc1cn2cc(-c3cc4sc(N(C)C5CC6CCCC(C5)N6)nc4cn3)cc(C#N)c2n1` (centres unmarked) [Compound 251, 6-{2-[9-azabicyclo[3.3.1]non-3-yl(methyl)amino][1,3]thiazolo[4,5-c]pyridin-6-yl}-2-methylimidazo[1,2-a]pyridine-8-carbonitrile], no less than 7.00; in that of `Cc1cn2cc(-c3cc4sc(NC5CC(C)(C)NC(C)(C)C5)nc4cn3)cc(C#N)c2n1` [Compound 222, 2-methyl-6-{2-[(2,2,6,6-tetramethylpiperidin-4-yl)amino][1,3]thiazolo[4,5-c]pyridin-6-yl]imidazo[1,2-a]pyridine-8-carbonitrile], no less than 7.00. `CCN(c1nc2cnc(-c3cc(C#N)c4nc(C)cn4c3)nc2s1)C1CC(C)(C)NC(C)(C)C1` [Compound 242, 6-{2-[ethyl(2,2,6,6-tetramethylpiperidin-4-yl)amino][1,3]thiazolo[5,4-d]pyrimidin-5-yl)-2-methylimidazo[1,2-a]pyridine-8-carbonitrile] gave a pIC50 of 6.30 to 7.00.

In turn, `Cc1cn2nc(-c3cc(F)c4nc(OC5CCN(C)CC5)sc4c3)cc(C)c2n1` [Compound 320, 6-{4-fluoro-2-[(1-methylpiperidin-4-yl)oxy]-1,3-benzothiazol-6-yl}-2,8-dimethylimidazo[1,2-b]pyridazine] had a pIC50 of no less than 7.00. The molecule `Cc1cn2nc(-c3cc(F)c4nc(N(C)C5CCNCC5)sc4c3)cc(C#N)c2n1` [Compound 231, 6-{4-fluoro-2-[methyl(piperidin-4-yl)amino]-1,3-benzothiazol-6-yl}-2-methylimidazo[1,2-b]pyridazine-8-carbonitrile] gave a negative logarithm of the IC50 (pIC50) of no less than 7.00.

`Cc1cn2nc(-c3cc(F)c4nc(OC5CC(C)NC(C)C5)sc4c3)cc(C)c2n1` (centres unmarked) [Compound 135, 6-{2-[(2,6-dimethylpiperidin-4-yl)oxy]-4-fluoro-1,3-benzothiazol-6-yl}-2,8-dimethylimidazo[1,2-b]pyridazine] showed a negative-log IC50 (pIC50) of no less than 7.00. Molecule `CN(c1nc2ccc(-c3ccc(-c4cn[nH]c4)cc3O)nc2s1)C1CC(C)(C)NC(C)(C)C1` [Compound 149, 2-{2-[methyl(2,2,6,6-tetramethylpiperidin-4-yl)amino][1,3]thiazolo[5,4-b]pyridin-5-yl}-5-(1H-pyrazol-4-yl)phenol] gave a pIC50 of 6.30 to 7.00.

`Cc1cn2nc(-c3cc(F)c4nc(C5=CCNCC5)sc4c3)ccc2n1` [Compound 44, 6-[4-fluoro-2-(1,2,3,6-tetrahydropyridin-4-yl)-1,3-benzothiazol-6-yl]-2-methylimidazo[1,2-b]pyridazine] had a negative-log IC50 (pIC50) of no less than 7.00.

`Cc1cn2cc(-c3cc4sc(N(C)C5CC(C)(C)NC(C)(C)C5)nc4cn3)cnc2n1` [Compound 105, N-methyl-6-(2-methylimidazo[1,2-a]pyrimidin-6-yl)-N-(2,2,6,6-tetramethylpiperidin-4-yl)[1,3]thiazolo[4,5-c]pyridin-2-amine] showed a pIC50 of 6.30 to 7.00. The molecule `Cn1cc2cc(-c3cc(Cl)c4nc(C5=CCNCC5)sc4c3)cc(C#N)c2n1` [Compound 154, 5-[4-chloro-2-(1,2,3,6-tetrahydropyridin-4-yl)-1,3-benzothiazol-6-yl]-2-methyl-2H-indazole-7-carbonitrile] had a pIC50 of 5.52 to 6.00. Molecule `Cc1cn2nc(-c3cc(F)c4nc(C5(C)CCNCC5)sc4c3)cc(C)c2n1` [Compound 210, 6-[4-fluoro-2-(4-methylpiperidin-4-yl)-1,3-benzothiazol-6-yl]-2,8-dimethylimidazo[1,2-b]pyridazine] showed a negative-log IC50 (pIC50) of 6.00 to 6.30. Consider `Cc1cn2nc(-c3cc(F)c4nc(N(C)C5CCNCC5)sc4c3)ccc2n1` [Compound 185, 4-fluoro-N-methyl-6-(2-methylimidazo[1,2-b]pyridazin-6-yl)-N-(piperidin-4-yl)-1,3-benzothiazol-2-amine], for which the negative logarithm of the IC50 (pIC50) was no less than 7.00. In turn, `CN(c1nc2nnc(-c3ccc(-c4cn[nH]c4)cc3O)cc2s1)C1CC(C)(C)NC(C)(C)C1` [Compound 119, 2-{6-[methyl(2,2,6,6-tetramethylpiperidin-4-yl)amino][1,3]thiazolo[4,5-c]pyridazin-3-yl}-5-(1H-pyrazol-4-yl)phenol] showed a pIC50 of no less than 7.00. The result for `Cn1cc2cc(-c3ccc4nc(N5CCNCC5)sc4c3)ccc2n1` [Compound 7, 6-(2-methyl-2H-indazol-5-yl)-2-(piperazin-1-yl)-1,3-benzothiazole] reads 5.52 to 6.00; that for `Cc1cn2cc(-c3cnc4nc(N(C)C5CC(C)(C)NC(C)(C)C5)sc4n3)cc(C#N)c2n1` [Compound 163, 2-methyl-6-{2-[methyl(2,2,6,6-tetramethylpiperidin-4-yl)amino][1,3]thiazolo[4,5-b]pyrazin-6-yl}imidazo[1,2-a]pyridine-8-carbonitrile], no less than 7.00; that for `Cc1cn2nc(-c3cc4sc(N(C)C5CC(C)(C)NC(C)(C)C5)nc4cn3)ccc2n1` [Compound 89, N-methyl-6-(2-methylimidazo[1,2-b]pyridazin-6-yl)-N-(2,2,6,6-tetramethylpiperidin-4-yl)[1,3]thiazolo[4,5-c]pyridin-2-amine], 6.00 to 6.30. The result for `Cc1cn2cc(-c3cc4sc(N(C)C5CC(C)(C)NC(C)(C)C5)nc4cn3)cc(C)c2n1` [Compound 88, 6-(2,8-dimethylimidazo[1,2-a]pyridin-6-yl)-N-methyl-N-(2,2,6,6-tetramethylpiperidin-4-yl)[1,3]thiazolo[4,5-c]pyridin-2-amine] reads no less than 7.00.

`Cc1cn2cc(-c3cc4sc(N(C)C5CC(C)(C)NC(C)(C)C5)nc4cn3)ccc2n1` [Compound 87, N-methyl-6-(2-methylimidazo[1,2-a]pyridin-6-yl)-N-(2,2,6,6-tetramethylpiperidin-4-yl)[1,3]thiazolo[4,5-c]pyridin-2-amine]: the pIC50 was no less than 7.00. `Cc1cn2cc(-c3ncc4nc(N(C)C5CC6CCC(C5)N6)sc4n3)cc(F)c2n1` (stereo not drawn) [Compound 217, N-[(3-exo)-8-azabicyclo[3.2.1]oct-3-yl]-5-(8-fluoro-2-methylimidazo[1,2-a]pyridin-6-yl)-N-methyl[1,3]thiazolo[5,4-d]pyrimidin-2-amine] had a pIC50 of no less than 7.00. `Cn1cc2cc(-c3nc4ncc(C5=CCNCC5)cc4s3)ccc2n1` [Compound 19, 2-(2-methyl-2H-indazol-5-yl)-6-(1,2,3,6-tetrahydropyridin-4-yl)[1,3]thiazolo[4,5-b]pyridine] gave a pIC50 of 6.30 to 7.00. For `CN(c1nc2ccc(-c3ccc4nn(C)cc4c3)nc2s1)C1CCNCC1` [Compound 26, N-methyl-5-(2-methyl-2H-indazol-5-yl)-N-(piperidin-4-yl)[1,3]thiazolo[5,4-b]pyridin-2-amine], the pIC50 was 6.00 to 6.30. Regarding `Cc1cn2cc(-c3ccc4nc(N(C)C5CC(C)(C)NC(C)(C)C5)sc4c3)cc(F)c2n1` [Compound 111, 6-(8-fluoro-2-methylimidazo[1,2-a]pyridin-6-yl)-N-methyl-N-(2,2,6,6-tetramethylpiperidin-4-yl)-1,3-benzothiazol-2-amine], the pIC50 is no less than 7.00.

For `Cc1nc2c(C#N)cc(-c3ncc4nc(N(C)C5CC(C)(C)NC(C)(C)C5)sc4n3)cc2o1` [Compound 275, 2-methyl-6-{2-[methyl(2,2,6,6-tetramethylpiperidin-4-yl)amino][1,3]thiazolo[5,4-d]pyrimidin-5-yl}-1,3-benzoxazole-4-carbonitrile], the pIC50 was no less than 7.00.
